These results are taken from US20230257396A1, “MACROCYCLES AND THEIR USE” (BLOSSOMHILL THERAPEUTICS, INC., priority 2020, published 2023).

Common to all, as to assay: KINOMEscan kinase binding assay (Eurofins/DiscoveRx), % Ctrl
In assay [1] the target is T1, kinases (Homo sapiens, UniProt P00519, Q252H).
T1 construct: purchased Eurofins/DiscoveRx; host or cells: E. coli BL21-derived host (T7 phage display) for most kinases; HEK-293 for the rest
Particulars: 1 μM. An outline of the steps:
(§1)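 Competition binding, 1 h RT: phage-tagged or HEK-293-expressed DNA-tagged kinase + immobilized ligand + compound. Eluate kinase by qPCR. % Ctrl = (test − positive ctrl)/(negative ctrl − positive ctrl) × 100; lower means stronger binding.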

Assay [2] concerns the target T2, kinases (Homo sapiens, UniProt P00533).
T2 construct: purchased Eurofins/DiscoveRx; host or cells: E. coli BL21-derived host (T7 phage display) for most kinases; HEK-293 for the rest
Particulars: 1 μM; EGFR. An outline of the steps:
as §1

For assay [3], the target named is T3, kinases (Homo sapiens, UniProt P10721).
T3 construct: purchased Eurofins/DiscoveRx; host or cells: E. coli BL21-derived host (T7 phage display) for most kinases; HEK-293 for the rest
Particulars: 1 μM. An outline of the steps:
as §1

Assay [4] deals with T4, kinases (Homo sapiens, UniProt P35916).
T4 construct: purchased Eurofins/DiscoveRx; host or cells: E. coli BL21-derived host (T7 phage display) for most kinases; HEK-293 for the rest
Particulars: 1 μM; FLT4. An outline of the steps:
as §1

The target in assay [5] is T5, kinases (Homo sapiens, UniProt P36888, R834Q).
T5 construct: purchased Eurofins/DiscoveRx; host or cells: E. coli BL21-derived host (T7 phage display) for most kinases; HEK-293 for the rest
T5 sequence (P36888 27-993 R834Q): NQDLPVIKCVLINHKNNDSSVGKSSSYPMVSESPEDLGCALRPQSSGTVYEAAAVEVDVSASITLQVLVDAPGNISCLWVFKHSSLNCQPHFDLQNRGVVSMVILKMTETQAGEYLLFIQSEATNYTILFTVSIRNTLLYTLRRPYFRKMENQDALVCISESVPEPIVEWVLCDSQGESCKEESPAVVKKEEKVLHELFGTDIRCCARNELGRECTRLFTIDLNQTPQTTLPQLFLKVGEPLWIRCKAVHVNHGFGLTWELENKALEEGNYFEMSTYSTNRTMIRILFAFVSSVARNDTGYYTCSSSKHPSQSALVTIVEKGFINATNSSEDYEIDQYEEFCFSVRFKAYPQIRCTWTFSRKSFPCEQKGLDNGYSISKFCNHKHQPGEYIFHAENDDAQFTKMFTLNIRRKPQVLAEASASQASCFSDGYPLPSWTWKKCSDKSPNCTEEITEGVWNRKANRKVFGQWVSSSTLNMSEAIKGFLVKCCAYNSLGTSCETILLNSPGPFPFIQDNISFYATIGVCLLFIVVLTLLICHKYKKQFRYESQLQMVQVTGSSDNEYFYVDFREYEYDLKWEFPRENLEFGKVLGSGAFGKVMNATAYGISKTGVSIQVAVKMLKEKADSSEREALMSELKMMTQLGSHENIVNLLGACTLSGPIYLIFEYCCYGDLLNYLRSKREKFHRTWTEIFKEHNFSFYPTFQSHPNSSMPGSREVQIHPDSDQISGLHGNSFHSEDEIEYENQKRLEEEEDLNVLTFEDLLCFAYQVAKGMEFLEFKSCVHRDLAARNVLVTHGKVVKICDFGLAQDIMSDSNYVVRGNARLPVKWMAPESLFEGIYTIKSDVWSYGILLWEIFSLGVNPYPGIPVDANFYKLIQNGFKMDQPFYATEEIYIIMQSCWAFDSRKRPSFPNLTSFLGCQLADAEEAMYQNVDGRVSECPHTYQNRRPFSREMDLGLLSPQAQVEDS
Particulars: 1 μM; FLT3(R834Q). An outline of the steps:
as §1

The test system of assay [6] is kinases. The settings on record: 1 μM. Put shortly: as §1

T3 sequence (P10721 26-976): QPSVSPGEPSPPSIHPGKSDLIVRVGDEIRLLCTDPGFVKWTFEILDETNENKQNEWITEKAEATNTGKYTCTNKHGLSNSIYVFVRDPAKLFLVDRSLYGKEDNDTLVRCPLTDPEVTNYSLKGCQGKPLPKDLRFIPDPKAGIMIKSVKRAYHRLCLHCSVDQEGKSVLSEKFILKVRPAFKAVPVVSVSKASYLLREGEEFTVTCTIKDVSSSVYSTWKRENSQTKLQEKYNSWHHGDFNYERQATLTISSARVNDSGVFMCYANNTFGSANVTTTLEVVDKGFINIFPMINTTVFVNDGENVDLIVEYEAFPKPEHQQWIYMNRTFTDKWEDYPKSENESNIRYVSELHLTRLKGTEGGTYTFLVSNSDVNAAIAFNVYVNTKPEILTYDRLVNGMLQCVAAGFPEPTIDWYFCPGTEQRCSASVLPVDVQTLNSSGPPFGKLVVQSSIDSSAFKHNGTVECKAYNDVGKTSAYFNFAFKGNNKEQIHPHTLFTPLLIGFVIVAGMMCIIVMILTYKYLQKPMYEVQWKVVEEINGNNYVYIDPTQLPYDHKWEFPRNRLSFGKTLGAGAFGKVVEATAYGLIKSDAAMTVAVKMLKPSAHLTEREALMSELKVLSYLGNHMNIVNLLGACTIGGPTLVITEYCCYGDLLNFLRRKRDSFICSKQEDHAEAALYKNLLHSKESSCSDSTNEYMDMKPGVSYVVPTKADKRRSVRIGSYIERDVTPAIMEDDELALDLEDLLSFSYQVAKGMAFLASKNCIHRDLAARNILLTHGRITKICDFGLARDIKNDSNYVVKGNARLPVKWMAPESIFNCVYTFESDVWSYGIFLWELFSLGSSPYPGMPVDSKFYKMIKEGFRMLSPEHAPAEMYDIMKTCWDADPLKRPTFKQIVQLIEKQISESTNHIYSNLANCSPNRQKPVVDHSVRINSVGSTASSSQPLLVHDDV
T4 sequence (P35916 25-1363): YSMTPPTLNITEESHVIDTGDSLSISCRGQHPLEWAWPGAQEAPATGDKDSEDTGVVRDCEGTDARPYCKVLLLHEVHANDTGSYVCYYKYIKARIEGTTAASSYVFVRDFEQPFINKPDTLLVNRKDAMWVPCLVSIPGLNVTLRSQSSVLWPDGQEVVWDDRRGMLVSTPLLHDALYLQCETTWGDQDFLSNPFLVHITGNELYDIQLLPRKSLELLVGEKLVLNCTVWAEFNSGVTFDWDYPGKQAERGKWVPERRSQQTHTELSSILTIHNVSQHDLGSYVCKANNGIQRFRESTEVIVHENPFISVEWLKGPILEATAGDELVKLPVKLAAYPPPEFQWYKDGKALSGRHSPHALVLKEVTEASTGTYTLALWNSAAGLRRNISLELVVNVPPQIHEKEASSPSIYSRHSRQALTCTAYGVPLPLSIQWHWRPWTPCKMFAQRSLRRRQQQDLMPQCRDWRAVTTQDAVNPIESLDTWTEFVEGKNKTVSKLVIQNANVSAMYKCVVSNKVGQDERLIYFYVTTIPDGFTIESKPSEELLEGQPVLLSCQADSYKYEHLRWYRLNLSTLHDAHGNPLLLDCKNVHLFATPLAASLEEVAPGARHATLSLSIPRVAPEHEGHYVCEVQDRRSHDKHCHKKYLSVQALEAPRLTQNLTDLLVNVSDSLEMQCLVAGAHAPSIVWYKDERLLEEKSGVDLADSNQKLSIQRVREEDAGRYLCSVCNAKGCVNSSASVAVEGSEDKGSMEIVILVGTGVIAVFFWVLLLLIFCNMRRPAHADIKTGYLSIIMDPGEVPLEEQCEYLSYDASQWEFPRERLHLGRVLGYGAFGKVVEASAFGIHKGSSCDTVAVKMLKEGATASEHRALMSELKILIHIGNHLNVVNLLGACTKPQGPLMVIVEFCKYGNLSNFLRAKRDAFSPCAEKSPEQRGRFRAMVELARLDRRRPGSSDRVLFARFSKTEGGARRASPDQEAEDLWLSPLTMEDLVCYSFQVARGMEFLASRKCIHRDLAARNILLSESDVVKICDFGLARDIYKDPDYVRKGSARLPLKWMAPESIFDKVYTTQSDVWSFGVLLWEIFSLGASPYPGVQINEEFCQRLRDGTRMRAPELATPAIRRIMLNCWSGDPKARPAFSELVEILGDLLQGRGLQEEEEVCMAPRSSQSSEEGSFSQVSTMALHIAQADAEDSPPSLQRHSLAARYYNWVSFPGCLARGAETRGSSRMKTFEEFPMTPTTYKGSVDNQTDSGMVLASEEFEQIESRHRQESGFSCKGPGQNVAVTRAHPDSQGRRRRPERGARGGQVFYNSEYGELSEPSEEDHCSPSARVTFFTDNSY
T2 sequence (P00533 25-1210): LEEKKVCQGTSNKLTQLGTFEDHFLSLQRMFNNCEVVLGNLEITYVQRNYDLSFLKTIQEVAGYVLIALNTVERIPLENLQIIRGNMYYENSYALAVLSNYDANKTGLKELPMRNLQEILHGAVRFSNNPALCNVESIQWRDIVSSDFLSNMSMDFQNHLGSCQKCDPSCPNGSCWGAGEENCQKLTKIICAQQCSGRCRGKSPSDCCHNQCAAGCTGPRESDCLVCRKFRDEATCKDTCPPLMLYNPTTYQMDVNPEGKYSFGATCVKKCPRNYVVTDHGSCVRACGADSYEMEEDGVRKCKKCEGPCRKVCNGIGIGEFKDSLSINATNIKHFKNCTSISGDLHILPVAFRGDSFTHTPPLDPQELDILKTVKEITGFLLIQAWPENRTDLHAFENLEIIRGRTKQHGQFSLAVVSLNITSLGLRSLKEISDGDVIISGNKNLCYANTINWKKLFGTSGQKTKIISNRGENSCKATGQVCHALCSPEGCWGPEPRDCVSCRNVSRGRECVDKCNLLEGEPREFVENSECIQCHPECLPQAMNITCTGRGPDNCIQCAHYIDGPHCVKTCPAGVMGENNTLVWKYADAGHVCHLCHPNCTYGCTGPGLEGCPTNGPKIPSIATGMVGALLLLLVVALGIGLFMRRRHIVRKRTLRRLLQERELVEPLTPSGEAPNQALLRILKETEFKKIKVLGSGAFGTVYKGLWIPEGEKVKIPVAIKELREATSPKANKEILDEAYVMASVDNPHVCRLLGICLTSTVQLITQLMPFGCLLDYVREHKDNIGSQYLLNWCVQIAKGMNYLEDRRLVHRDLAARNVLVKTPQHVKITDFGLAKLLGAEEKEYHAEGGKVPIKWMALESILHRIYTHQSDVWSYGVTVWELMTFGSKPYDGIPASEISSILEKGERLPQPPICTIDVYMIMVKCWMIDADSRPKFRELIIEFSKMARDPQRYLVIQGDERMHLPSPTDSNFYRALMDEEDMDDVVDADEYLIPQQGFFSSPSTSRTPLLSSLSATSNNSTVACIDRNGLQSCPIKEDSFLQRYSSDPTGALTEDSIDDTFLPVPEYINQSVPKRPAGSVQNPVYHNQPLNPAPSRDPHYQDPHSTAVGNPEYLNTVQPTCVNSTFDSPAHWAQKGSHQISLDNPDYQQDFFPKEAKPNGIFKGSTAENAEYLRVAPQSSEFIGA

Consider `Cc1cc2c([nH]1)/C=C1\C(=O)Nc3ccc(cc31)-c1c(C)n[nH]c1CNCCN(C)C2=O` [Ex. 127, [3a(4)Z]-6,9,16-trimethyl-9,10,11,12,13,14-hexahydro-1,17-(ethanediylidene)pyrazolo[4,3-m]dipyrrolo[3,2-f:3′,4′-i][1,4]diazacyclopentadecine-3,8(2H,5H)-dione], for which, in assay [1], the “% Ctrl, ABL1(Q252H)-nonphosphorylated” value is listed as 0 % Ctrl and the “% Ctrl, ABL1(Q252H)-phosphorylated” value is given as 0.05 % Ctrl. The “% Ctrl, EGFR” value in assay [2] is given as 42 % Ctrl. Further, in assay [3], the “% Ctrl, KIT” value stood at 89 % Ctrl and the “% Ctrl, KIT-autoinhibited” value worked out at 80 % Ctrl. In addition, the “% Ctrl, FLT4” value in assay [4] amounted to 2.1 % Ctrl. For the same molecule, the “% Ctrl, FLT3(R834Q)” value in assay [5] turned out to be 13 % Ctrl. Also, in assay [6], the “% Ctrl, EGFR(L747-E749del, A750P)” value worked out at 26 % Ctrl; the “% Ctrl, EGFR(L747-S752del, P753S)” value amounted to 40 % Ctrl; the “% Ctrl, EGFR(L747-T751del, Sins)” value is on record as 43 % Ctrl; the “% Ctrl, FLT3(ITD)” value came to 2.2 % Ctrl. For the same molecule, in assay [6], the “% Ctrl, FLT3(ITD, D835V)” value turned out to be 0 % Ctrl and the “% Ctrl, FLT3(ITD, F691L)” value stood at 6.2 % Ctrl.

Regarding `Cc1cc2c([nH]1)/C=C1\C(=O)Nc3ccc(cc31)-c1ccnn1CCNCCNC2=O` [Ex. 43, [19a(20)Z]-2-methyl-5,6,7,8,9,10-hexahydro-15,17-(ethanediylidene)pyrazolo[1,5-g]dipyrrolo[3,4-k:2′,3′-n][1,4,7]triazacyclohexadecine-4,19(1H,18H)-dione], in assay [1], the “% Ctrl, ABL1(Q252H)-nonphosphorylated” value is given as 55 % Ctrl and the “% Ctrl, ABL1(Q252H)-phosphorylated” value stood at 97 % Ctrl. Moreover, the “% Ctrl, EGFR” value in assay [2] is listed as 61 % Ctrl. Besides, in assay [3], the “% Ctrl, KIT” value is reported as 100 % Ctrl and the “% Ctrl, KIT-autoinhibited” value worked out at 81 % Ctrl. Further, in assay [4], the “% Ctrl, FLT4” value was 91 % Ctrl. Moreover, the “% Ctrl, FLT3(R834Q)” value in assay [5] is recorded as 85 % Ctrl. In assay [6], the “% Ctrl, EGFR(L747-E749del, A750P)” value amounted to 89 % Ctrl; the “% Ctrl, EGFR(L747-S752del, P753S)” value is on record as 86 % Ctrl; the “% Ctrl, EGFR(L747-T751del, Sins)” value stood at 85 % Ctrl; the “% Ctrl, FLT3(ITD)” value is on record as 100 % Ctrl. Besides, in assay [6], the “% Ctrl, FLT3(ITD, D835V)” value is 38 % Ctrl and the “% Ctrl, FLT3(ITD, F691L)” value was found to be 47 % Ctrl.

For `Cc1cc2c([nH]1)/C=C1\C(=O)Nc3ccc(cc31)-c1cnn(C)c1CNCCN(C)C2=O` [Ex. 125, [3a(4)Z]-6,9,14-trimethyl-9,10,11,12,13,14-hexahydro-1,17-(ethanediylidene)pyrazolo[4,3-m]dipyrrolo[3,2-f:3′,4′-i][1,4]diazacyclopentadecine-3,8(2H,5H)-dione], in assay [1], the “% Ctrl, ABL1(Q252H)-nonphosphorylated” value amounted to 0 % Ctrl and the “% Ctrl, ABL1(Q252H)-phosphorylated” value came to 0.05 % Ctrl. Also, the “% Ctrl, EGFR” value in assay [2] turned out to be 61 % Ctrl. In assay [3], the “% Ctrl, KIT” value was 42 % Ctrl and the “% Ctrl, KIT-autoinhibited” value is reported as 95 % Ctrl. Besides, the “% Ctrl, FLT4” value in assay [4] was 0.11 % Ctrl. The “% Ctrl, FLT3(R834Q)” value in assay [5] is 0.3 % Ctrl. Moreover, in assay [6], the “% Ctrl, EGFR(L747-E749del, A750P)” value was 22 % Ctrl; the “% Ctrl, EGFR(L747-S752del, P753S)” value was determined as 48 % Ctrl; the “% Ctrl, EGFR(L747-T751del, Sins)” value amounted to 54 % Ctrl; the “% Ctrl, FLT3(ITD)” value was 0 % Ctrl. For the same molecule, in assay [6], the “% Ctrl, FLT3(ITD, D835V)” value is listed as 0 % Ctrl and the “% Ctrl, FLT3(ITD, F691L)” value was 0 % Ctrl.
